Where “and” joins values, the source holds several entries; their conditions need not be identical. Equal values may be shown once. Toxic doses and inconclusive results are not listed. No stated cut-off is given here; in the data, active means T/C of 150% or more; inactive means T/C below 125%.
Tested on: L1210 leukemia ip in BDF1 mice, survival T/C
Experiment: NCI In Vivo Anticancer Drug Screen. Data for tumor model L1210 Leukemia (intraperitoneal) in B6D2F1 (BDF1) mice
Details: higher = longer survival
Summary of the method: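 Each compound was tested against a transplantable tumor grown in mice. The endpoint was survival, with treated animals benchmarked against vehicle controls as a simple ratio.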

[1] = endpoint: mean survival time, dose: 50.0 mg/kg/injection, schedule: Q01DX001 (ip), vehicle: saline
[2] = endpoint: mean survival time, dose: 100.0 mg/kg/injection, schedule: Q01DX001 (ip), vehicle: saline
[3] = endpoint: mean survival time, dose: 200.0 mg/kg/injection, schedule: Q01DX001 (ip), vehicle: saline
[4] = endpoint: mean survival time, dose: 400.0 mg/kg/injection, schedule: Q01DX001 (ip), vehicle: saline

Measured: T/C

C(=N\N(CCCCN(/N=C/c1ccccc1)c1ccccc1)c1ccccc1)/c1ccccc1
inactive: endpoint: mean survival time, dose: 12.5 mg/kg/injection, schedule: Q01DX009 (ip), vehicle: gum acacia 111 % of control | endpoint: mean survival time, dose: 25.0 mg/kg/injection, schedule: Q01DX009 (ip), vehicle: gum acacia 96 % of control | [1] 96 % of control | endpoint: mean survival time, dose: 50.0 mg/kg/injection, schedule: Q01DX009 (ip), vehicle: gum acacia 92 % of control | [2] 104 % of control | endpoint: mean survival time, dose: 100.0 mg/kg/injection, schedule: Q04DX003 (ip), vehicle: gum acacia 94 % of control | [3] 91 % of control | endpoint: mean survival time, dose: 200.0 mg/kg/injection, schedule: Q01DX009 (ip), vehicle: gum acacia 87 % of control | endpoint: mean survival time, dose: 200.0 mg/kg/injection, schedule: Q04DX003 (ip), vehicle: gum acacia 89 % of control | [4] 98 % of control | endpoint: mean survival time, dose: 400.0 mg/kg/injection, schedule: Q01DX009 (ip), vehicle: gum acacia 86 % of control | endpoint: mean survival time, dose: 400.0 mg/kg/injection, schedule: Q04DX003 (ip), vehicle: gum acacia 91 % of control

N#CCCn1c2ccccc2c2ccccc21
inactive: [1] 96 % of control | endpoint: mean survival time, dose: 50.0 mg/kg/injection, schedule: Q04DX002 (ip), vehicle: gum acacia 91 % of control | [2] 102 % of control | endpoint: mean survival time, dose: 100.0 mg/kg/injection, schedule: Q04DX002 (ip), vehicle: gum acacia 91 % of control | [3] 102 % of control | endpoint: mean survival time, dose: 200.0 mg/kg/injection, schedule: Q04DX002 (ip), vehicle: gum acacia 98 % of control | [4] 96 % of control

CO[C@H](C(=O)[C@@H](O)[C@@H](C)O)[C@@H]1Cc2cc3cc(OC4CC(OC5CC(O)C(O)C(C)O5)C(O)C(C)O4)c(C)c(O)c3c(O)c2C(=O)[C@H]1OC1CC(OC2CC(OC3CC(C)(O)C(O)C(C)O3)C(O)C(C)O2)C(O)C(C)O1 (stereo partly specified)
inactive: endpoint: mean survival time, dose: 0.13 mg/kg/injection, schedule: Q01DX001 (iv), vehicle: water 86 % of control | endpoint: mean survival time, dose: 0.15 mg/kg/injection, schedule: Q01DX015 (ip), vehicle: saline 93 % of control | endpoint: mean survival time, dose: 0.25 mg/kg/injection, schedule: Q01DX001 (ip), vehicle: water 104 % of control | endpoint: mean survival time, dose: 0.25 mg/kg/injection, schedule: Q01DX001 (iv), vehicle: water 96 % of control | endpoint: mean survival time, dose: 0.25 mg/kg/injection, schedule: Q01DX Z (ip), vehicle: saline 98 % of control | endpoint: mean survival time, dose: 0.31 mg/kg/injection, schedule: Q01DX015 (ip), vehicle: saline 104 % of control | endpoint: mean survival time, dose: 0.37 mg/kg/injection, schedule: Q01DX001 (ip), vehicle: water 98 % of control | endpoint: mean survival time, dose: 0.5 mg/kg/injection, schedule: Q01DX001 (ip), vehicle: saline 98 % of control and 101 % of control | endpoint: mean survival time, dose: 0.5 mg/kg/injection, schedule: Q01DX001 (ip), vehicle: water 95 % of control and 97 % of control | endpoint: mean survival time, dose: 0.5 mg/kg/injection, schedule: Q01DX001 (iv), vehicle: water 100 % of control | endpoint: mean survival time, dose: 0.5 mg/kg/injection, schedule: Q01DX Z (ip), vehicle: saline 107 % of control | endpoint: mean survival time, dose: 0.62 mg/kg/injection, schedule: Q01DX015 (ip), vehicle: saline 102 % of control | endpoint: mean survival time, dose: 1.0 mg/kg/injection, schedule: Q01DX001 (ip), vehicle: saline 97 % of control | endpoint: mean survival time, dose: 1.0 mg/kg/injection, schedule: Q01DX Z (ip), vehicle: saline 103 % of control | endpoint: mean survival time, dose: 1.25 mg/kg/injection, schedule: Q01DX001 (ip), vehicle: saline 109 % of control | endpoint: mean survival time, dose: 1.25 mg/kg/injection, schedule: Q01DX015 (ip), vehicle: saline 96 % of control | endpoint: mean survival time, dose: 2.0 mg/kg/injection, schedule: Q01DX001 (ip), vehicle: saline 101 % of control | endpoint: mean survival time, dose: 2.5 mg/kg/injection, schedule: Q01DX001 (ip), vehicle: saline 109 % of control | endpoint: mean survival time, dose: 10.0 mg/kg/injection, schedule: Q01DX001 (ip), vehicle: saline 91 % of control | endpoint: mean survival time, dose: 1.5 micrograms/kg/injection, schedule: Q01DX009 (ip), vehicle: saline 101 % of control and 114 % of control | endpoint: mean survival time, dose: 3.0 micrograms/kg/injection, schedule: Q01DX009 (ip), vehicle: saline 100 % of control and 104 % of control | endpoint: mean survival time, dose: 6.0 micrograms/kg/injection, schedule: Q01DX009 (ip), vehicle: saline 95 % of control and 97 % of control | endpoint: mean survival time, dose: 12.0 micrograms/kg/injection, schedule: Q01DX009 (ip), vehicle: saline 94 % of control and 95 % of control | endpoint: mean survival time, dose: 12.0 micrograms/kg/injection, schedule: Q04DX002 (ip), vehicle: saline 97 % of control and 108 % of control | endpoint: mean survival time, dose: 22.0 micrograms/kg/injection, schedule: Q01DX Z (ip), vehicle: water 97 % of control | endpoint: mean survival time, dose: 22.0 micrograms/kg/injection, schedule: Q02DX Z (ip), vehicle: water 88 % of control | endpoint: mean survival time, dose: 23.0 micrograms/kg/injection, schedule: Q04DX002 (ip), vehicle: saline 101 % of control and 90 % of control | endpoint: mean survival time, dose: 25.0 micrograms/kg/injection, schedule: Q01DX009 (ip), vehicle: saline 99 % of control and 100 % of control | endpoint: mean survival time, dose: 33.0 micrograms/kg/injection, schedule: Q01DX Z (ip), vehicle: water 91 % of control | endpoint: mean survival time, dose: 33.0 micrograms/kg/injection, schedule: Q02DX Z (ip), vehicle: water 96 % of control | endpoint: mean survival time, dose: 45.0 micrograms/kg/injection, schedule: Q04DX002 (ip), vehicle: saline 94 % of control and 103 % of control | endpoint: mean survival time, dose: 50.0 micrograms/kg/injection, schedule: Q01DX009 (ip), vehicle: saline 103 % of control and 110 % of control | endpoint: mean survival time, dose: 50.0 micrograms/kg/injection, schedule: Q01DX Z (ip), vehicle: water 88 % of control | endpoint: mean survival time, dose: 50.0 micrograms/kg/injection, schedule: Q02DX Z (ip), vehicle: water 91 % of control | endpoint: mean survival time, dose: 62.5 micrograms/kg/injection, schedule: Q01DX Z (ip), vehicle: saline 97 % of control | endpoint: mean survival time, dose: 75.0 micrograms/kg/injection, schedule: Q01DX Z (ip), vehicle: water 91 % of control | endpoint: mean survival time, dose: 75.0 micrograms/kg/injection, schedule: Q02DX Z (ip), vehicle: water 97 % of control | endpoint: mean survival time, dose: 90.0 micrograms/kg/injection, schedule: Q04DX002 (ip), vehicle: saline 100 % of control and 106 % of control | endpoint: mean survival time, dose: 125.0 micrograms/kg/injection, schedule: Q01DX009 (ip), vehicle: clinical formulation 103 % of control | endpoint: mean survival time, dose: 125.0 micrograms/kg/injection, schedule: Q01DX009 (ip), vehicle: saline 105 % of control | endpoint: mean survival time, dose: 125.0 micrograms/kg/injection, schedule: Q01DX Z (ip), vehicle: saline 107 % of control | endpoint: mean survival time, dose: 190.0 micrograms/kg/injection, schedule: Q04DX002 (ip), vehicle: saline 87 % of control and 90 % of control | endpoint: mean survival time, dose: 250.0 micrograms/kg/injection, schedule: Q01DX009 (ip), vehicle: clinical formulation 103 % of control | endpoint: mean survival time, dose: 250.0 micrograms/kg/injection, schedule: Q01DX009 (ip), vehicle: saline 107 % of control | endpoint: mean survival time, dose: 250.0 micrograms/kg/injection, schedule: Q01DX Z (ip), vehicle: saline 109 % of control | endpoint: mean survival time, dose: 370.0 micrograms/kg/injection, schedule: Q04DX002 (ip), vehicle: saline 97 % of control and 103 % of control | endpoint: mean survival time, dose: 375.0 micrograms/kg/injection, schedule: Q01DX009 (ip), vehicle: saline 108 % of control | endpoint: mean survival time, dose: 500.0 micrograms/kg/injection, schedule: Q01DX009 (ip), vehicle: clinical formulation 108 % of control | endpoint: mean survival time, dose: 500.0 micrograms/kg/injection, schedule: Q01DX009 (ip), vehicle: saline 113 % of control | endpoint: mean survival time, dose: 500.0 micrograms/kg/injection, schedule: Q01DX Z (ip), vehicle: saline 113 % of control | endpoint: mean survival time, dose: 750.0 micrograms/kg/injection, schedule: Q01DX009 (ip), vehicle: saline 108 % of control | endpoint: mean survival time, dose: 1000.0 micrograms/kg/injection, schedule: Q01DX009 (ip), vehicle: clinical formulation 109 % of control | endpoint: mean survival time, dose: 1000.0 micrograms/kg/injection, schedule: Q01DX009 (ip), vehicle: saline 114 % of control | endpoint: mean survival time, dose: 1500.0 micrograms/kg/injection, schedule: Q01DX009 (ip), vehicle: saline 108 % of control | endpoint: mean survival time, dose: 3000.0 micrograms/kg/injection, schedule: Q01DX009 (ip), vehicle: saline 113 % of control | endpoint: median survival time, dose: 0.25 mg/kg/injection, schedule: Q01DX009 (ip), vehicle: saline 100 % of control and 111 % of control | endpoint: median survival time, dose: 0.5 mg/kg/injection, schedule: Q01DX009 (ip), vehicle: saline 106 % of control and 122 % of control

OCC(O)C(O)C(O)/C=N\Nc1ccc(Br)cc1 (stereo unspecified)
inactive: endpoint: mean survival time, dose: 50.0 mg/kg/injection, schedule: Q04DX002 (ip), vehicle: saline with Tween-80 93 % of control | endpoint: mean survival time, dose: 100.0 mg/kg/injection, schedule: Q04DX002 (ip), vehicle: saline with Tween-80 95 % of control | endpoint: mean survival time, dose: 200.0 mg/kg/injection, schedule: Q04DX002 (ip), vehicle: saline with Tween-80 87 % of control

O=c1[nH]c2ccc([As](O)O)cc2[nH]1
inactive: endpoint: mean survival time, dose: 12.5 mg/kg/injection, schedule: Q01DX009 (ip), vehicle: water 109 % of control | endpoint: mean survival time, dose: 25.0 mg/kg/injection, schedule: Q01DX009 (ip), vehicle: water 110 % of control | endpoint: mean survival time, dose: 50.0 mg/kg/injection, schedule: Q01DX001 (ip), vehicle: water 98 % of control | endpoint: mean survival time, dose: 50.0 mg/kg/injection, schedule: Q01DX009 (ip), vehicle: water 124 % of control | endpoint: mean survival time, dose: 100.0 mg/kg/injection, schedule: Q01DX001 (ip), vehicle: water 101 % of control | endpoint: mean survival time, dose: 200.0 mg/kg/injection, schedule: Q01DX001 (ip), vehicle: water 104 % of control | endpoint: mean survival time, dose: 400.0 mg/kg/injection, schedule: Q01DX001 (ip), vehicle: water 114 % of control

From PubChem BioAssay AID248 (DTP/NCI, 2004)
